Assay results taken from US20260167674A1, “ACE2 […] SEQUENCES” (priority 2023, published 2026).
No end group written: not given here.

Experiments:
SARS-COV-2 RBD = SARS-COV-2 RBD (Severe acute respiratory syndrome coronavirus 2, UniProt P0DTC2); assay: biochemical; type: binding
[1] = target: SARS-COV-2 RBD protein with His-tag, purified by recombinant expression in Pichia pastoris (SARS-COV-2), P0DTC2; assay: SPR at 25 C; His-tagged RBD captured by anti-His tag, peptide flowed over

| Molecule | Kd (SARS-COV-2 RBD) [pM] | Kd [1] [pM] |
| --- | --- | --- |
| EENAKTFLNNFNQEAEDLSYQSSLASWNYNT [peptide4] | 1.26 to 8.16 | – |
| QEQAQTYLDGYNKTYQDLVYKDNLAQWTLNT [peptide2] | 3.55 to 4.09 | – |
| QEQAQTYLDGYNKTYQDLVYKDNLAQWTLNT (modifications not checked) [peptide2 (WP_072363071.1:30-60 M2 family metallopeptidase [Chitinophaga sancti])] | – | 3.55 to 4.09 |
| EENAKTFLNNFNQEAEDLSYQSSLASWNYNT (modifications not checked) [peptide4 (BAB40431.1:22-52 angiotensin-converting enzyme-related carboxypeptidase [Mus musculus])] | – | 1.26 to 8.16 |
